PubChem BioAssay AID330 (DTP/NCI, 2004)
Values joined by “and” are separate entries in the source; they are usually repeats but may differ in a detail not shown here. Identical values can stand only once. Inconclusive results and toxic doses are left out. Rule for the calls: active = survival T/C of 150% or more; inactive = T/C below 125% in these data.

System: P388 leukemia ip, CD2F1 mice, survival T/C
Test: NCI In Vivo Anticancer Drug Screen. Data for tumor model P388 Leukemia (intraperitoneal) in CD2F1 (CDF1) mice
Details: endpoint: median survival time, higher = longer survival
Procedure, shortened: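 Mice carrying the transplanted tumor received test compound or vehicle. Survival was recorded in each group, and the value is the treated-group measurement divided by that of the vehicle-treated control group.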

[1] = dose: 100.0 mg/kg/injection, schedule: Q04DX003 (ip), vehicle: Klucel (hydroxypropylcellulose) (HPC)
[2] = dose: 50.0 mg/kg/injection, schedule: Q01DX009 (ip), vehicle: saline
[3] = dose: 100.0 mg/kg/injection, schedule: Q01DX009 (ip), vehicle: saline
[4] = dose: 200.0 mg/kg/injection, schedule: Q01DX009 (ip), vehicle: saline
[5] = dose: 60.0 mg/kg/injection, schedule: Q01DX005 (ip), vehicle: saline with Tween-80
[6] = dose: 50.0 mg/kg/injection, schedule: Q01DX009 (ip), vehicle: Klucel (hydroxypropylcellulose) (HPC)
[7] = dose: 100.0 mg/kg/injection, schedule: Q01DX009 (ip), vehicle: Klucel (hydroxypropylcellulose) (HPC)
[8] = dose: 200.0 mg/kg/injection, schedule: Q01DX009 (ip), vehicle: Klucel (hydroxypropylcellulose) (HPC)
[9] = dose: 50.0 mg/kg/injection, schedule: Q01DX009 (ip), vehicle: saline with Tween-80
[10] = dose: 100.0 mg/kg/injection, schedule: Q01DX009 (ip), vehicle: saline with Tween-80
[11] = dose: 200.0 mg/kg/injection, schedule: Q01DX009 (ip), vehicle: saline with Tween-80

Measured: T/C

COc1ccc(C(=O)/C=C/c2ccc3c(c2)OCO3)c(OCc2ccccc2)c1
inactive: dose: 3.75 mg/kg/injection, schedule: Q01DX009 (ip), vehicle: Klucel (hydroxypropylcellulose) (HPC) 98 % of control | dose: 7.5 mg/kg/injection, schedule: Q01DX009 (ip), vehicle: Klucel (hydroxypropylcellulose) (HPC) 99 % of control | dose: 15.0 mg/kg/injection, schedule: Q01DX009 (ip), vehicle: Klucel (hydroxypropylcellulose) (HPC) 98 % of control | dose: 30.0 mg/kg/injection, schedule: Q01DX009 (ip), vehicle: Klucel (hydroxypropylcellulose) (HPC) 94 % of control

CC(=O)c1ccc(N(C)C(=O)C(Cl)Cl)cc1
inactive: [1] 100 % of control | dose: 200.0 mg/kg/injection, schedule: Q04DX003 (ip), vehicle: Klucel (hydroxypropylcellulose) (HPC) 100 % of control | dose: 400.0 mg/kg/injection, schedule: Q04DX003 (ip), vehicle: Klucel (hydroxypropylcellulose) (HPC) 100 % of control

CN(C)CCOc1cccc2c1C(=O)c1ccccc1C2=O
inactive: dose: 12.5 mg/kg/injection, schedule: Q01DX009 (ip), vehicle: water 113 % of control | dose: 25.0 mg/kg/injection, schedule: Q01DX009 (ip), vehicle: water 105 % of control | dose: 50.0 mg/kg/injection, schedule: Q01DX009 (ip), vehicle: water 107 % of control | dose: 100.0 mg/kg/injection, schedule: Q01DX009 (ip), vehicle: water 109 % of control

CC(O)C(O)C(=O)O (stereo unspecified)
inactive: [2] 94 % of control | [3] 93 % of control | [4] 91 % of control | dose: 400.0 mg/kg/injection, schedule: Q01DX009 (ip), vehicle: saline 92 % of control

COC(=O)N1CCCc2ccc3c(OC)c(OC)cc(c3c2)CC1
inactive: dose: 60.0 mg/kg/injection, schedule: Q01DX005 (ip), vehicle: Klucel (hydroxypropylcellulose) (HPC) 100 % of control | dose: 120.0 mg/kg/injection, schedule: Q01DX005 (ip), vehicle: Klucel (hydroxypropylcellulose) (HPC) 100 % of control | dose: 240.0 mg/kg/injection, schedule: Q01DX005 (ip), vehicle: Klucel (hydroxypropylcellulose) (HPC) 88 % of control

N#Cc1ccc(NC(=O)Nc2nncs2)cc1
inactive: dose: 12.5 mg/kg/injection, schedule: Q01DX009 (ip), vehicle: distilled water + Tween-80 115 % of control and 116 % of control | dose: 25.0 mg/kg/injection, schedule: Q01DX009 (ip), vehicle: distilled water + Tween-80 122 % of control | dose: 200.0 mg/kg/injection, schedule: Q01DX009 (ip), vehicle: distilled water + Tween-80 104 % of control

CCOc1ccc(/C=C/S(=O)(=O)/C=C\c2ccccc2)c(OC)c1
inactive: dose: 50.0 mg/kg/injection, schedule: Q01DX005 (ip), vehicle: saline with Tween-80 98 % of control | dose: 100.0 mg/kg/injection, schedule: Q01DX005 (ip), vehicle: saline with Tween-80 92 % of control | dose: 200.0 mg/kg/injection, schedule: Q01DX005 (ip), vehicle: saline with Tween-80 87 % of control

Cc1ccc2c(=O)n3cc(CCC#N)cc3c(=O)[nH]c2c1O
inactive: dose: 100.0 mg/kg/injection, schedule: Q01DX001 (ip), vehicle: Klucel (hydroxypropylcellulose) (HPC) 99 % of control | dose: 200.0 mg/kg/injection, schedule: Q01DX001 (ip), vehicle: Klucel (hydroxypropylcellulose) (HPC) 89 % of control | dose: 400.0 mg/kg/injection, schedule: Q01DX001 (ip), vehicle: Klucel (hydroxypropylcellulose) (HPC) 92 % of control

CC(NCCO)C(O)c1ccccc1 (stereo unspecified)
inactive: [3] 90 % of control | [4] 98 % of control

CC(=O)NC1C(=O)CC(c2ccccc2)N(C)C1c1ccccc1 (stereo unspecified)
inactive: dose: 50.0 mg/kg/injection, schedule: Q01DX005 (ip), vehicle: Klucel (hydroxypropylcellulose) (HPC) 101 % of control | dose: 100.0 mg/kg/injection, schedule: Q01DX005 (ip), vehicle: Klucel (hydroxypropylcellulose) (HPC) 97 % of control | dose: 200.0 mg/kg/injection, schedule: Q01DX005 (ip), vehicle: Klucel (hydroxypropylcellulose) (HPC) 90 % of control

S=C(N/N=C/c1c[nH]c2ccccc12)NC12CC3CC(CC(C3)C1)C2
inactive: [5] 101 % of control | dose: 120.0 mg/kg/injection, schedule: Q01DX005 (ip), vehicle: saline with Tween-80 90 % of control

Cn1c(=O)c2nnn(-c3ccccc3)c2n(C)c1=O
inactive: dose: 45.0 mg/kg/injection, schedule: Q01DX009 (ip), vehicle: saline with Tween-80 100 % of control | dose: 90.0 mg/kg/injection, schedule: Q01DX009 (ip), vehicle: saline with Tween-80 115 % of control | dose: 180.0 mg/kg/injection, schedule: Q01DX009 (ip), vehicle: saline with Tween-80 100 % of control

c1ccc2cc(OCC(COc3ccc4ccccc4c3)(COc3ccc4ccccc4c3)COc3ccc4ccccc4c3)ccc2c1
inactive: dose: 7.5 mg/kg/injection, schedule: Q01DX009 (ip), vehicle: saline with Tween-80 89 % of control

CCn1c(=O)c2[nH]c(Br)nc2n(CCOC)c1=O
inactive: [6] 90 % of control | [7] 93 % of control | [8] 104 % of control

Nc1cc2c(c[n+](CCCBr)c3ccccc23)c2ccccc12
inactive: dose: 1.56 mg/kg/injection, schedule: Q04DX003 (ip), vehicle: other 118 % of control | dose: 3.13 mg/kg/injection, schedule: Q04DX003 (ip), vehicle: other 118 % of control | dose: 6.25 mg/kg/injection, schedule: Q04DX003 (ip), vehicle: other 122 % of control

Cc1ncc([N+](=O)[O-])n1CCOC(=O)c1ccc(F)cc1
inactive: [9] 99 % of control | [10] 92 % of control | [11] 97 % of control

O=C(OC(c1ccccc1)c1ccccc1)c1ccc([N+](=O)[O-])cc1
inactive: [9] 101 % of control | [10] 106 % of control | [11] 108 % of control

CC(=O)Nc1cc(C)ns1
inactive: dose: 25.0 mg/kg/injection, schedule: Q01DX009 (ip), vehicle: saline 101 % of control | [2] 109 % of control | [3] 101 % of control | [4] 89 % of control

COC(=O)C1C2CC3c4[nH]c5cc(OC)c(Br)cc5c4CCN3CC2CC(OC(=O)c2cc(OC)c(OC)c(OC)c2)C1OC (stereo unspecified)
inactive: dose: 3.75 mg/kg/injection, schedule: Q01DX005 (ip), vehicle: Klucel (hydroxypropylcellulose) (HPC) 104 % of control | dose: 7.5 mg/kg/injection, schedule: Q01DX005 (ip), vehicle: Klucel (hydroxypropylcellulose) (HPC) 94 % of control | dose: 15.0 mg/kg/injection, schedule: Q01DX005 (ip), vehicle: Klucel (hydroxypropylcellulose) (HPC) 104 % of control | dose: 30.0 mg/kg/injection, schedule: Q01DX005 (ip), vehicle: Klucel (hydroxypropylcellulose) (HPC) 108 % of control

NC(=S)N/N=C/c1cn(-c2ccc(N)cc2)cn1
inactive: dose: 25.0 mg/kg/injection, schedule: Q04DX003 (ip), vehicle: Klucel (hydroxypropylcellulose) (HPC) 100 % of control | dose: 50.0 mg/kg/injection, schedule: Q04DX003 (ip), vehicle: Klucel (hydroxypropylcellulose) (HPC) 91 % of control | [1] 100 % of control

C/C=C/C(C#N)O[Si](C)(C)C (stereo unspecified)
inactive: dose: 3.75 mg/kg/injection, schedule: Q01DX005 (ip), vehicle: saline 97 % of control | dose: 7.5 mg/kg/injection, schedule: Q01DX005 (ip), vehicle: saline 113 % of control | dose: 15.0 mg/kg/injection, schedule: Q01DX005 (ip), vehicle: saline 99 % of control

Cc1cc(C2c3ccccc3-c3ccccc32)cc(C)c1O
inactive: dose: 1.87 mg/kg/injection, schedule: Q01DX005 (ip), vehicle: saline with Tween-80 90 % of control | dose: 3.75 mg/kg/injection, schedule: Q01DX005 (ip), vehicle: saline with Tween-80 97 % of control | dose: 7.5 mg/kg/injection, schedule: Q01DX005 (ip), vehicle: saline with Tween-80 91 % of control | dose: 15.0 mg/kg/injection, schedule: Q01DX005 (ip), vehicle: saline with Tween-80 91 % of control | [5] 90 % of control | dose: 240.0 mg/kg/injection, schedule: Q01DX005 (ip), vehicle: saline with Tween-80 92 % of control

COc1cccc2c(NCCCCCO[N+](=O)[O-])cc[n+](C)c12
inactive: dose: 12.5 mg/kg/injection, schedule: Q01DX009 (ip), vehicle: Klucel (hydroxypropylcellulose) (HPC) 104 % of control | dose: 25.0 mg/kg/injection, schedule: Q01DX009 (ip), vehicle: Klucel (hydroxypropylcellulose) (HPC) 110 % of control | [6] 107 % of control

Cc1cc(=O)n2c(nc3cc(Cl)ccc32)s1
inactive: [6] 103 % of control | [7] 95 % of control | [8] 89 % of control
